Entries after “also recorded” stand apart in the source; their conditions may differ.
Assay: UV–Vis titration of ligands with Cu(ClO4)2, binding constant by non-linear regression
Conditions: difference of stability constants
Protocol: To determine the overall equilibrium constant β1,2 (Kbind), a solution of the ligand was titrated with aliquots of 0.2 equivalents of Cu(II). Monitoring the formation of the complex via UV–Vis spectroscopy, the absorbance around 260 nm, 300 nm, 450 nm, and 700 nm increased during the titration (Figure 3a) in all cases. The latter two bands are visible only at high concentrations (>0.1 mM). These changes are caused by the formation of the complex and the disappearance of the free ligand.
In Figure 3b, the linear increase in the absorbance change (ΔAbs) at 240 nm, upon an increase in Cu(II) amount, is evident, leading to a sharp plateau around 2 equivalents. […] The binding constants were determined by non-linear regression analysis of Equation (2), (2) ∆A/b=(K1∆A1Cu+ β1,2∆A2Cu^2)/1+K1Cu+ β1,2Cu^2 which traces the correlation “ΔAbs/b vs. Cu(II) concentration,” according to K. Connors. In this equation, ΔA is the differences in absorbance at a certain wavelength, b is the optical path (1 cm), K1 is the constant for the formation of the complex 1:1, and β1,2 is the global formation constant (Kbind) for the complex 1:2. ΔA1 and ΔA2 are the differences in absorbance due to the formation of the 1:1 complex and the 1:2 complex, respectively. […]
UV-vis spectra of ligands and complexes were recorded in a quartz cuvette, with 1 cm of optical path. […]

Cc1cc(CN(Cc2ccccn2)Cc2ccccn2)c(O)c(CN(Cc2ccccn2)Cc2ccccn2)c1 [HL-CH3, 2,6-bis[(bis(2-pyridylmethyl)amino)methyl]-4-methylphenol]
binding preference for copper ions over Mn2+, Fe2+, Zn2+: almost three orders of magnitude; also recorded: approximately three orders of magnitude higher

Reference: PMC11643690, “Chelating Properties of N6O-Donors Toward Cu(II) Ions: Speciation in Aqueous Environments and Catalytic Activity of the Dinuclear Complexes” (Molecules, 2024)
